Legend:
[1] = molecular target: T1, uPA1–48:uPAR complexes binding to vitronectin (Homo sapiens, UniProt Q03405); test: Vitronectin binding assay (ELISA); conditions: 20 nM biotinylated suPAR, 20 nM uPA1–48
T1 construct: sUPAR, soluble truncated form of the urokinase receptor; made in house; host or cells: suPAR: baculovirus-infected Sf9 cells; uPA1-48: recombinant yeast; vitronectin: purified from human plasma
Procedure: Vitronectin was purified from human plasma by the method of Yatohgo et al, Cello Struct.and Funct. 13: 281–292 (1988). Purified vitronectin was diluted to 20 μg/ml in PBS containing 1 mM CaCl2 and 0.5 mM MgCl2, dispensed at 50 μl/well into Immulon II wells (Dynatech, Chantilly, Va.), incubated overnight at 4° C. and washed with PBS/BSA. Biotinylated sUPAR was diluted to 20 nM in PBS/BSA, incubated with or without test ligand for 30 minutes at room temperature (22° C.), dispensed at 100 μl/well and incubated for 90 minutes. Wells were then washed and horseradish peroxidase (HRP)-conjugated streptavidin was added at 0.4 μg/ml in PBS/2% BSA for 1 hour followed by washing and addition of 100 μl/well TMB substrate. The color development was stopped with 100 μl of 0.8N H2SO4 and the absorbance at 450 nm measured in a 96 well plate reader (Dynatech, Chantilly, Va.). Antagonistic effects of test ligands were measured as described above except the ligands were incubated with 20 nM biotinylated suPAR in the presence of 20 nM uPA1–48.
In order to analyze the effects of the various peptide ligands on the uPAR:vitronectin interaction, we developed an in vitro ELISA based assay for this interaction, in which biotinylated suPAR and uPA1–48 bind to immobilized, urea purified vitronectin, and the bound sUPAR is detected with HRP conjugated streptavidin. Under the conditions of the assay binding of biotinylated uPAR to vitronectin is strictly dependent on uPA1–48, as shown in FIG. 1.

[2] = tested on: GPI-uPAR dependent adhesion of 293 cells to vitronectin; test: Adhesion of GPI-uPAR expressing 293 cells to vitronectin; format: cell-based
Source text: In order to ascertain whether cytoskeletal connecting elements important to integrin-dependent adhesion were also involved in adhesion mediated by uPAR, embryonic kidney cells (293 cells) were engineered to coexpress uPAR along with a chimeric protein comprised of the β1 cytoplasmic tail fused with the transmembrane domain of […] (CD4). […] Co-expression of uPAR with β1 cytoplasmic domains completely abrogated uPAR-dependent vitronectin adhesion. Clones expressing full length or truncated β1 cytoplasmic tails prepared as in Lukashev et al, J. Biol. Chem. 26: 18311 (1994) were transfected with cDNA for GPI-uPAR and selected as in Wei et al, J. Biol. Chem. 169: 32380 (1994). Chimeric β1 expression was induced by cadmium for 6 hours prior to assaying adhesion to vitronectin at 37° C. Following induction of full length β1 chimerics, essentially no cells were adherent to vitronectin-coated surfaces whereas co-transfectants expressing the truncated β1 adhered avidly.
Cell adhesion assays were conducted to determin whether the observed uPAR/β1/caveolin complexes were functionally relevant.
To test this hypothesis further, a phage display peptide library was screened for uPAR-binding phages. A number of phage peptides were isolated as described in Goodson et al, Proc. Natl. Acad. Sci. U.S.A. 91: 7129 (1994). […]

soluble uPAR = soluble uPAR (Homo sapiens, UniProt Q03405); format: binding; parameters: sUPAR, soluble truncated form of the urokinase receptor; made in house; host or cells: baculovirus-infected Sf9 insect cells
soluble uPAR, sequence (Q03405 23-305 limits assumed): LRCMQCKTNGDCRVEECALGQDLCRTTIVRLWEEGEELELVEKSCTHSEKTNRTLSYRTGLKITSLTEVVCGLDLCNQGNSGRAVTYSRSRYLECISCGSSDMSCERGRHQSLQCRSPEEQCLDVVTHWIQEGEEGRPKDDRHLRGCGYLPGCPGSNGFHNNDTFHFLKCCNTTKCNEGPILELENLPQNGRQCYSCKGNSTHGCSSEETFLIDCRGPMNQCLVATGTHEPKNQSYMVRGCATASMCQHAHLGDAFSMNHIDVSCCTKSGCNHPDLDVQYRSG
Procedure: Streptavidin, 100 μl (0.1 mg/ml) in 50 mM Na2CO3, pH 9.6, was added to MaxiSorp wells (Nunc), incubated overnight at 4 C, and then washed with PBS/BSA. Biotinylated sUPAR (25 nM in PBS/BSA) was added to the wells and incubated for 2 hours at room temperature prior to washing. Competitive peptide inhibitors were added to the wells immediately prior to addition of the bacteriophage. The wells were incubated for one hour at room temperature, then washed and bound bacteriophage eluted with 6M urea in 0.1N HCl, pH 2.5. After 15 minutes, the urea eluate was brought to neutral pH by addition of 2M Tris base and the bacteriophage titers of input stocks and elutions measured by plaque formation assay. Results were expressed as the percent of input bacteriophage which bind to the wells. Alternatively, the amount of bacteriophage was determined in an ELISA where phage were preincubated with HRP-conjugated anti-M13 antibody for 30 minutes at room temperature before dispensing into wells prepared as above and incubated for one hour at room temperature. The final anti-M13 conjugate dilution was 1:4000. After washing, TMB substrate (100 μl/well) was added and color development was stopped with 0.8N H2SO4 (100 μl/well). The absorbance at 450 nm was then measured in a 96 well plate reader.
In a uPAR binding assay, the following analogs were tested in a competition with phage displaying either peptide 25 or peptide 9. The analogs comprise both natural and unnatural amino acids.
The analogs were tested in an assay utilizing soluble uPAR, similar to the method described in Example 2. The analogs were tested for their ability to compete with phage displaying either peptide 9 or peptide 25. Analogs 3–61 were tested in competition with peptide 25. Analogs 62–96 were tested in competition with peptide 9. Approximately 10^8 plaque forming units of the phage were used in the assay.
The analogs were tested at a concentration at 40 μM in the uPAR competition assay with phage displaying peptide 25. The results below show which analogs were active.
Analogs 31–61 were tested for their ability to compete with phage displaying peptide 25. The active analogs were tested further at two concentrations, 5 μM and 2.5 μM. These concentrations were calculated based on the synthesis reactions. However, the sequences * were further tested and determined to contain high amounts of amino acids and the quantity tested could have been higher than 5 μM or 2.5 μM.

T1 sequence (Q03405 23-305 limits assumed, one chain of several): as the sequence (Q03405 23-305 limits assumed) above

H-AESTYHHLSLGYMYTLN-NH2 [peptide 25] was tested, and the “effect on binding of uPA1–48:uPAR complexes to vitronectin” value [1] was “little or no effect”, the IC50 [2] was ~60 µM and the “% Inhibition 2.5 uM” value (soluble uPAR; 2500.0) was 45%. For the same substance, the “% Inhibition 5 uM” value (soluble uPAR; 5000.0) was 59%.

From patent US7094752B2 (Chiron Corporation, priority 1997, dated 2006)
